Experimental data: ChEMBL document CHEMBL1136856, “Synthesis of 5-isoxazol-5-yl-2'-deoxyuridines exhibiting antiviral activity against HSV and several RNA viruses” (Bioorg Med Chem Lett, 2009)
Converted amounts (≈) assume the structure as drawn. The source made the active and inactive calls. The rule behind the calls is not given here.

Key:
Type in all cases: functional, organism-based
[1] = test system: Human alphaherpesvirus 1; assay: Antiviral activity against HSV1 assessed as inhibition of virus-induced cytopathicity
[2] = test system: Human alphaherpesvirus 2; assay: Antiviral activity against HSV2 assessed as inhibition of virus-induced cytopathicity
[3] = test system: Coxsackievirus B3; assay: Antiviral activity against Coxsackievirus B3 assessed as inhibition of virus-induced cytopathicity; conditions: Enterovirus B
[4] = test system: Human immunodeficiency virus; assay: Antiviral activity against HIV assessed as inhibition of virus-induced cytopathicity
[5] = test system: Influenza A virus; assay: Antiviral activity against influenza A virus Panama assessed as inhibition of virus-induced cytopathicity
[6] = test system: Coronaviridae; assay: Antiviral activity against Coronavirus assessed as inhibition of virus-induced cytopathicity
[7] = test system: Influenza A virus; assay: Antiviral activity against influenza A virus Seoul assessed as inhibition of virus-induced cytopathicity
[8] = test system: Encephalomyocarditis virus; assay: Antiviral activity against EMCV assessed as inhibition of virus-induced cytopathicity; conditions: Cardiovirus A
[9] = test system: Influenza A virus; assay: Antiviral activity against influenza A virus Taiwan assessed as inhibition of virus-induced cytopathicity
[10] = test system: Vesicular stomatitis virus; assay: Antiviral activity against VSV assessed as inhibition of virus-induced cytopathicity

Nc1ccn([C@@H]2O[C@H](CO)[C@@H](O)[C@@H]2O)c(=O)n1 [CYTARABINE]
EC50 [1]: 0.2 µg/mL (≈ 0.822 µM) | EC50 [2]: 0.52 µg/mL (≈ 2.14 µM)

CC(C)c1ccc(-c2cc(-c3cn([C@H]4C[C@H](O)[C@@H](CO)O4)c(=O)[nH]c3=O)on2)cc1
EC50 [1]: 0.09 µg/mL (≈ 0.218 µM) | EC50 [3]: 0.03 µg/mL (≈ 0.0726 µM) | Activity [4]: inactive | Activity [5]: inactive | Activity [6]: inactive | Activity [7]: inactive | EC50 [8]: 0.02 µg/mL (≈ 0.0484 µM) | EC50 [2]: 0.09 µg/mL (≈ 0.218 µM) | Activity [9]: inactive | EC50 [10]: > 0.07 µg/mL

CC(=O)OC[C@H]1O[C@@H](n2cc(-c3cc(-c4ccc(C(C)(C)C)cc4)no3)c(=O)[nH]c2=O)C[C@@H]1OC(C)=O
EC50 [1]: > 0.06 µg/mL | EC50 [3]: 0.01 µg/mL (≈ 0.0195 µM) | Activity [4]: inactive | Activity [5]: inactive | Activity [6]: inactive | Activity [7]: inactive | EC50 [8]: 0.01 µg/mL (≈ 0.0195 µM) | EC50 [2]: 0.03 µg/mL (≈ 0.0586 µM) | Activity [9]: inactive | EC50 [10]: 0.03 µg/mL (≈ 0.0586 µM)

CC(=O)OC[C@H]1O[C@@H](n2cc(-c3cc(-c4ccc(C(C)C)cc4)no3)c(=O)[nH]c2=O)C[C@@H]1OC(C)=O
EC50 [1]: 0.08 µg/mL (≈ 0.161 µM) | EC50 [3]: 0.01 µg/mL (≈ 0.0201 µM) | Activity [4]: inactive | Activity [5]: inactive | Activity [6]: inactive | Activity [7]: inactive | EC50 [8]: 0.01 µg/mL (≈ 0.0201 µM) | EC50 [2]: 0.07 µg/mL (≈ 0.141 µM) | Activity [9]: inactive | EC50 [10]: 0.03 µg/mL (≈ 0.0603 µM)

NC(=O)c1ncn([C@@H]2O[C@H](CO)[C@@H](O)[C@H]2O)n1 [RIBAVIRIN]
EC50 [8]: 0.02 µg/mL (≈ 0.0819 µM)

Nc1nc2c(ncn2COCCO)c(=O)[nH]1 [ACYCLOVIR]
EC50 [1]: 0.18 µg/mL (≈ 0.799 µM) | EC50 [2]: 0.36 µg/mL (≈ 1.6 µM)
